# Experiments:
# HDAC1 = HDAC1 (Homo sapiens, UniProt Q13547); experiment: HDAC1 enzymatic assay (IP-HDAC1, 3H-acetyl release); type: biochemical; conditions: IP-HDAC1 incubated with inhibitor 24 hrs
# Protocol: (§1) FIG. 1: a) Cell cycle analysis of U937 cells treated for 30 hrs with the indicated compounds used at 1 and 5 μM; b) Caspase 3 apoptotic assay of the indicated compounds after 24 hrs of treatment in the U937 cells; c) Tubulin acetylation and p21 expression levels at 6 and 16 hrs after treatment with the indicated compounds; total tubulin expression levels are used for equal loading; d) Histone H3 acetylation and K9 H3 methylation expression levels at 6 and 16 hrs after treatment with the indicated compounds; total tubulin expression levels are used for equal loading; e) K9, K14, K18 histone H3 acetylation expression levels at 6 and 16 hrs after treatment with the indicated compounds; total ERKs expression levels are used for equal loading; f) HDAC1 enzymatic assay: IP-HDAC1 is incubated with the indicated inhibitors for 24 Hrs; activity is measured as ^3H-acetyl release; g) HDAC4 enzymatic assay: IP-HDAC4 is incubated with the indicated inhibitors for 24 hrs; activity is measured as ^3H-acetyl release.
# human recombinant SIRT1 = human recombinant SIRT1 (Homo sapiens, UniProt Q96EB6); experiment: SIRT activity assay, SIRT1; type: biochemical
# Sequence of human recombinant SIRT1 (Q96EB6 whole entry): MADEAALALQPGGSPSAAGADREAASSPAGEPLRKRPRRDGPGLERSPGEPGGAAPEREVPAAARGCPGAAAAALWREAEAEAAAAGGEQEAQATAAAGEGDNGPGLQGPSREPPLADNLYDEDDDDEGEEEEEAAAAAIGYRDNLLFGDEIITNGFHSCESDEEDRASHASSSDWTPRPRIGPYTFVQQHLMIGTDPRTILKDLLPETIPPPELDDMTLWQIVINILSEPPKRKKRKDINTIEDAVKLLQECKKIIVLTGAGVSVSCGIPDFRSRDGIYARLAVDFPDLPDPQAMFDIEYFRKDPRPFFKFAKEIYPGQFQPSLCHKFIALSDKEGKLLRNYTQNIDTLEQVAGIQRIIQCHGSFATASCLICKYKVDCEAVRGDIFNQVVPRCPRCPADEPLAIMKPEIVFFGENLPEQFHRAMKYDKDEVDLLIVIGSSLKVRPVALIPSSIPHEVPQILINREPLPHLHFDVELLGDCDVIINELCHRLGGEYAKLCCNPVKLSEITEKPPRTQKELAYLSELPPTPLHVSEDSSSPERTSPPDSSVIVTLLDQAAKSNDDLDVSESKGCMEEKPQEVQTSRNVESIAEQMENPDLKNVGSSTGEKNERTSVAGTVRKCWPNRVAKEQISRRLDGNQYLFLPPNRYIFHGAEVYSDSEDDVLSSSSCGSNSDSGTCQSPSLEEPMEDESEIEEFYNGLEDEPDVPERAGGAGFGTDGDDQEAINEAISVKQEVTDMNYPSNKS
# Protocol: FIG. 13A: % of SIRT1 and SIRT2 activity with controls, sodium suramine, a sirtuin inhibitor, and resveratrol a SIRT1 activator, and with UVI5008 at concentrations of 50 μM and 5 μM.
# The SIRT activity assay was performed using the human recombinant SIRT1 and SIRT2. SIRT1 (1 U/well) or SIRT2 (5 U/well), respectively, were incubated (37° C. for 1 h) with the SIRT1/2 substrate (corresponding to a p53 acetylated peptide) in the presence of NAD^+ and various concentrations of tested compounds (sirtuins activators or inhibitors). Activity was measured as fluorescence intensity. As internal controls, sodium suramin, a sirtuin inhibitor, and resveratrol, a SIRT1 activator, have been included. The fluorescence was measured on a fluorometric reader (Inphinite 200 TECAN) with excitation set at 360 nm and emission detection set at 460 nm
# U937 cells = experiment: Caspase 3 apoptotic assay in U937 cells; type: cell-based, human; conditions: U937, 24 hrs
# Protocol: as §1
# A-375 cells = experiment: MTT cytotoxicity assay, A-375; conditions: read-out: IC50 values, MTT cytotoxicity assay; A-375, 48 h
# p16INK4a promoter = experiment: Methylation specific PCR for the p16 gene; type: cell-based; conditions: 24 hrs
# Protocol: (§2) FIG. 2: a) Methylation specific PCR for the RARβ gene after 16 and 24 hrs of treatment with the indicated compounds; b) Methylation specific PCR for the p16 gene after 24 hrs of the indicated treatments. Samples are representative of real duplicates; c) p16 expression levels in U937 cells after 24 hrs with the indicated treatments; d) DNMT enzymatic in vitro assay carried out with 1.5 and 50 μM of the indicated compounds;
# DNA extraction was performed as described below. Bisulfite treatment and PCR for the determination of p16 methylation was performed as described from the suppliers (Chemicon).
# [1] = system: cancer cell lines A-375, DU145 and HCT-116; experiment: Dose response curves, anti-proliferative activity on cancer cell lines; type: cell-based; conditions: range over A-375, DU145, HCT-116; read-out: IC50 values, anti-proliferative activity on different types of cancer cell lines
# Protocol: HCT-116, A-375 and DU-145 cells were plated at 8000 cells per well in 96-well transparent cell culture grade plates (Corning). Plates were kept in the humidified CO2 (5%) incubator overnight so that cells get attached to the bottom. […] Viable cells cleave the MTT tetrazolium ring into a dark blue formazan reaction product, whereas dead cells remain colorless. The MTT-containing medium was gently removed and DMSO was added in each well. After shaking, the plates were read in absorbance at 540 nm. All results are expressed as the average of three wells. Percent cytotoxicity was measured of each compound and represented in terms of its IC50 values.
# Anti-proliferative activity on cancer cell lines A-375, DU145 and HCT-116: […]
# HDAC6 = biological target: T1, HDAC6 (Homo sapiens, UniProt Q9UBN7); experiment: Alpha tubulin acetylation in U937 cells (HDAC6 readout); type: cell-based; conditions: U937, 6 and 16 hrs
# T1 construct: Tubuline acetylation and p21 expression levels in U937 cells after 24 hrs with the indicated treatments; endogenous in cells; host or cells: U937
# T1 sequence (Q9UBN7 whole entry): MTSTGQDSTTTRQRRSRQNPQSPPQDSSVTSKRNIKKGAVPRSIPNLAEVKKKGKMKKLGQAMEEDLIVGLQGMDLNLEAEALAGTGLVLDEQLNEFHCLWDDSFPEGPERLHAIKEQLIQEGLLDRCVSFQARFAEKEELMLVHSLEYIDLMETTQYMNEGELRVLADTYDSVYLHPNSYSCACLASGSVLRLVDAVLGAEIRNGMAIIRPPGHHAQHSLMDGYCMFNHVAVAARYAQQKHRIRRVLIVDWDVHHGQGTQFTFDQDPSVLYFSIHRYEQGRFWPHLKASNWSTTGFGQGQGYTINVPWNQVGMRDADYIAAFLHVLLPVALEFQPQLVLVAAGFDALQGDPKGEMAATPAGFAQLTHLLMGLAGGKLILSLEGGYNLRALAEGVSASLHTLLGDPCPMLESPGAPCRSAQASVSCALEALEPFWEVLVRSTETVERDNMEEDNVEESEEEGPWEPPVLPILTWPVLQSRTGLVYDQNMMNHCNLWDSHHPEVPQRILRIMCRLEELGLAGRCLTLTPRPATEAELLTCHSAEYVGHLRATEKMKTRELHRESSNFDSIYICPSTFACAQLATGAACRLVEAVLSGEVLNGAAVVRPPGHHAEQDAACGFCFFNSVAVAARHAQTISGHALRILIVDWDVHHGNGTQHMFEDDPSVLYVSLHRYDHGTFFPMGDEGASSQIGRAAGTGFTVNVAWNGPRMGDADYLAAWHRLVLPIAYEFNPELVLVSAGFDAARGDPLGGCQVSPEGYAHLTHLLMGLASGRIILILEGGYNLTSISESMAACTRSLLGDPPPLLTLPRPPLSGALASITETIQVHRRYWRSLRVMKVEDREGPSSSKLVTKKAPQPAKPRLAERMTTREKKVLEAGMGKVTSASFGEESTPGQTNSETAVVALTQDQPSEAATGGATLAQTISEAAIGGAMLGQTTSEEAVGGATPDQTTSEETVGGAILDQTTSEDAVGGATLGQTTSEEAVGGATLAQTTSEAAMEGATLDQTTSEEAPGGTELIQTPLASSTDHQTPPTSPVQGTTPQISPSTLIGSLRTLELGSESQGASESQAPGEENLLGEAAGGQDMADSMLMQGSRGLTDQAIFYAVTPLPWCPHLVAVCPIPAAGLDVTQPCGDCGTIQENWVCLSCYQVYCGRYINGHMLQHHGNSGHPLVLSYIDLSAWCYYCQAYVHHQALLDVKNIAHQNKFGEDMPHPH
# Protocol: as §1, with “release. […]” for “release.”
# [2] = system: U937 acute myeloid leukemia cell line; experiment: Cell cycle analysis in U937 cells; type: cell-based, human; conditions: U937, 30 hrs
# Protocol: as §1
# FIG. 3: a) Cell cycle and apoptosis analysis carried out in U937 cells after 24 hrs with the indicated compounds; values are media of independent triplicates; b) CD11c expression analysis carried out in U937 cells with the indicated compounds; values are media of independent duplicates; c) Tubuline acetylation and p21 expression levels in U937 cells after 24 hrs with the indicated treatments; total ERKs expression levels are used for equal loading; d) acetylation of histone H3 under the conditions indicated in (c).
# Human leukemia cell line U937 was propagated in RPMI medium supplemented with 10% FBS (Foetal bovine serum; Hyclone) and antibiotics (100 U/mL penicillin, 100 μg/mL streptomycin and 250 ng/mL amphotericin-B). Cells were kept at the constant concentration of 200000 cells per milliliter of culture medium. For AML samples, bone marrow containing 80% to 90% leukemic blasts was purified over Ficoll. This study was approved by the Ethical Committee of the Second University of Naples.
# MS-275 (Schering A G) was dissolved in ethanol and used at 5×10^−6M; valproic acid (VPA; Sigma) was used at 1 mM. All other compounds described were dissolved in DMSO (Sigma-Aldrich) and used at 1 or 5 μM.
# 2.5×10^5 cells were collected and resuspended in 500 μL of a hypotonic buffer (0.1% Triton X-100, 0.1% sodium citrate, 50 μg/mL propidium iodide, RNAse A). Cells were incubated in the dark for 30 min. Samples were acquired on a FACS-Calibur flow cytometer using the Cell Quest software (Becton Dickinson) and analysed with standard procedures using the Cell Quest software (Becton Dickinson) and the ModFit LT version 3 Software (Verity). All the experiments were performed 3 times.
# DU-145 cells = experiment: MTT cytotoxicity assay, DU-145; conditions: read-out: IC50 values, MTT cytotoxicity assay; DU-145, 48 h
# [3] = system: breast cancer cells (ZR75.1); experiment: Anti-proliferative and apoptogenic action in breast cancer cells; type: cell-based; conditions: data not shown
# [4] = system: DNA methyltransferase (DNMT); experiment: DNMT enzymatic in vitro assay; type: biochemical; conditions: 1.5 and 50 μM
# Protocol: as §2
# Sequence of HDAC1 (Q13547 whole entry, species assumed): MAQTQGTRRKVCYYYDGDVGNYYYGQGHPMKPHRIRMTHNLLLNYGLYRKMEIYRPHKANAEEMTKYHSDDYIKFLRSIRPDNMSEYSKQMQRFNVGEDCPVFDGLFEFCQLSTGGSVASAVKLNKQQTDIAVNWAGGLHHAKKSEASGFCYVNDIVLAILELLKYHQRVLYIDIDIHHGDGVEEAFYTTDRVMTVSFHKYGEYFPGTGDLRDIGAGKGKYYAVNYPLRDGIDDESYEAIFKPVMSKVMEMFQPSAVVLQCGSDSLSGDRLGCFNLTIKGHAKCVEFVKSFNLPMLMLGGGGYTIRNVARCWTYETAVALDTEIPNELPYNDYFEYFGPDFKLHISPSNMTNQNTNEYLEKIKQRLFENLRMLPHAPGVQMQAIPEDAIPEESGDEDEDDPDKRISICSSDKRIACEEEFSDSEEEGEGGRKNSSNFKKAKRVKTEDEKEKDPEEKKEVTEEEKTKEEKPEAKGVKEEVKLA
smiles,measurement,setting,value
O=C(NCCSSCCNC(=O)C(Cc1c[nH]c2ccc(Br)cc12)=NO)C(Cc1c[nH]c2ccc(Br)cc12)=NO [UVI5008],HDAC1 inhibition,HDAC1,blocks HDAC1 activity nearly quantitatively
same,IC50,human recombinant SIRT1,8.9 µM
same,apoptogenic effect (caspase 3),U937 cells,strongest apoptogenic effect
same,IC50,A-375 cells,3.1 ± 0.5 µM
same,unmethylated p16INK4a promoter DNA (MSP),p16INK4a promoter,increased
same,IC50,[1],1500 to 3000 nM
same,inhibition of HDAC6 (alpha tubulin acetylation),HDAC6,inhibited the activity of HDAC6
same,"cell cycle arrest, position of the block",[2]; 1 μM,arrests cells in G2-M
same,"cell cycle arrest, position of the block",[2]; 1 and 5 μM,arrests in the S and G2 phases
same,IC50,DU-145 cells,2400 ± 300 nM
same,anti-proliferative and apoptogenic action,[3],confirmed
same,DNMT inhibition,[4],nearly as active as RG108 albeit at higher concentrations

# Reference: patent publication US8338473B2, “Derivatives of psammaplin A, a method for their synthesis and their uses for the prevention or treatment of cancer” (Centre National de la Recherche Scientifique, priority 2007, dated 2012)
